Results on 24 compounds are retold here after patent publication US20230167127A1, “COMPOUNDS AND THEIR USE IN THE TREATMENT OF BACTERIAL INFECTION” (Hoffmann-La Roche Inc., priority 2020, published 2023).

Usually IC50 stands for the concentration that inhibits the measured activity by half.

Where a name gives a salt, the structure may show the parent alone.

The first assay concerns Escherichia coli ATCC 25922. The assay can be described thus: 50% growth inhibitory concentration (IC50) determination, Iso-Sensitest broth dilution. The assay is classed as cell-based. The settings on record: Escherichia coli, ATCC25922, 16 h, strain Escherichia coli ATCC 25922; 10-point broth dilution, optical density at 600 nm over 16 h; read-out: Escherichia coli growth inhibition IC50. The procedure, abridged: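 10-point twofold Iso-Sensitest broth dilution (e.g. 50 to 0.097 μM final) with DMSO stocks, incubated at 35±2° C. Growth followed by OD 600 nm every 20 min over 16 h; IC50 derived from growth inhibition during logarithmic phase.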
In general terms: In broth dilution the organism is exposed to a series of concentrations in liquid medium.
With `CNC(=O)COc1ccc2c(c1C#N)CC(CNCCC1CN(c3ccc4c(n3)NC(=O)CO4)C(=O)O1)C2` (stereo not drawn) [Example 48, 2-[[4-cyano-2-[[2-[2-oxo-3-(3-oxo-4H-pyrido[3,2-b][1,4]oxazin-6-yl)-1,3-oxazolidin-5-yl]ethylamino]methyl]-2,3-dihydro-1H-inden-5-yl]oxy]-N-methylacetamide], the IC50 was 106 nM.

For the compound `Cc1nc(OC[C@H](N)CO)c(C)c2c1CC(CNCCC1CN(c3ccc4c(n3)NC(=O)CO4)C(=O)O1)C2` (stereo partly drawn) [Example 234, 6-[5-[2-[[3-[(2R)-2-Amino-3-hydroxypropoxy]-1,4-dimethyl-6,7-dihydro-5H-cyclopenta[c]pyridin-6-yl]methylamino]ethyl]-2-oxo-1,3-oxazolidin-3-yl]-4H-pyrido[3,2-b][1,4]oxazin-3-one], the IC50 was found to be 212 nM.

In the case of `O=C1COc2ccc(N3CC(CCNCC4Cc5cccc(F)c5C4)OC3=O)nc2N1` (stereo not drawn) [Example 91, 6-[5-[2-[(4-fluoro-2,3-dihydro-1H-inden-2-yl)methylamino]ethyl]-2-oxo-1,3-oxazolidin-3-yl]-4H-pyrido[3,2-b][1,4]oxazin-3-one], the IC50 is less than 97.7 nM.

Consider `CC(CN)Oc1cc(F)c2c(c1)CC(CNCCC1CN(c3ccc4c(n3)NC(=O)CO4)C(=O)O1)C2` (stereo not drawn) [Example 155, 6-[5-[2-[[6-(1-aminopropan-2-yloxy)-4-fluoro-2,3-dihydro-1H-inden-2-yl]methylamino]ethyl]-2-oxo-1,3-oxazolidin-3-yl]-4H-pyrido[3,2-b][1,4]oxazin-3-one; formic acid], for which the IC50 was 364 nM.

Regarding `NC1c2cccc(Cl)c2CC1CN1CCC2(CC1)CN(c1ccc3c(n1)NC(=O)CO3)C(=O)O2` (racemic) [Example 212, 6-[2-oxo-8-[[rac-1,2-trans-1-amino-4-chloro-2,3-dihydro-1H-inden-2-yl]methyl]-1-oxa-3,8-diazaspiro[4.5]decan-3-yl]-4H-pyrido[3,2-b][1,4]oxazin-3-one], the IC50 is less than 97.7 nM.

For the compound `O=C1COc2ncc(N3CC(CCNCC4Cc5cc(OC6CNC6)cc(F)c5C4)OC3=O)nc2N1` (stereo not drawn) [Example 358, 6-[5-[2-[[6-(azetidin-3-yloxy)-4-fluoro-2,3-dihydro-1H-inden-2-yl]methylamino]ethyl]-2-oxo-1,3-oxazolidin-3-yl]-4H-pyrazino[2,3-b][1,4]oxazin-3-one; hydrochloride], the IC50 is less than 97.7 nM.

On to `O=C1COc2ncc(N3CC(CCNCC4Cc5cc(OCCn6cnnn6)cc(F)c5C4)OC3=O)nc2N1` (stereo not drawn) [Example 347, 6-[5-[2-[[4-fluoro-6-[2-(tetrazol-1-yl)ethoxy]-2,3-dihydro-1H-inden-2-yl]methylamino]ethyl]-2-oxo-1,3-oxazolidin-3-yl]-4H-pyrazino[2,3-b][1,4]oxazin-3-one; formic acid], for which the IC50 was 175 nM.

For `N#Cc1cccc2c1CC(CN1CCC3(CC1)CN(c1ccc4c(n1)NC(=O)CO4)C(=O)O3)C2` (stereo not drawn) [Example 28, 2-[ [2-oxo-3-(3-oxo-4H-pyrido[3,2-b] [1,4]oxazin-6-yl)-1-oxa-3,8-diazaspiro[4.5]decan-8-yl]methyl]-2,3-dihydro-1H-indene-4-carbonitrile], the IC50 was less than 97.7 nM.

Turning to `CNC(=O)COc1cc(C#N)c2c(c1)CC(CNCCC1CN(c3ccc4c(n3)NC(=O)CO4)C(=O)O1)C2` (stereo not drawn) [Example 107, 2-[[7-cyano-2-[[2-[2-oxo-3-(3-oxo-4H-pyrido[3,2-b][1,4]oxazin-6-yl)-1,3-oxazolidin-5-yl]ethylamino]methyl]-2,3-dihydro-1H-inden-5-yl]oxy]-N-methylacetamide], the IC50 came out at 235 nM.

`Cc1ncc(F)c2c1CC(CN(C)CCC1CN(c3cnc4c(n3)NC(=O)CO4)C(=O)O1)C2` (stereo not drawn) [Example 376, 6-[5-[2-[(4-Fluoro-1-methyl-6,7-dihydro-5H-cyclopenta[c]pyridin-6-yl)methyl-methylamino]ethyl]-2-oxo-1,3-oxazolidin-3-yl]-4H-pyrazino[2,3-b][1,4]oxazin-3-one]: the 50% inhibitory concentration (IC50) is less than 97.7 nM.

With `CNC(=O)COc1cc(F)c2c(c1)CC(CNCCC1CN(c3cnc4c(n3)NC(=O)CO4)C(=O)O1)C2` (stereo not drawn) [Example 310, 2-[[7-fluoro-2-[[2-[2-oxo-3-(3-oxo-4H-pyrazino[2,3-b][1,4]oxazin-6-yl)-1,3-oxazolidin-5-yl]ethylamino]methyl]-2,3-dihydro-1H-inden-5-yl]oxy]-N-methylacetamide; formic acid], the IC50 was found to be 180 nM.

Take `NCCOc1ccc2c(c1Cl)CC(NCCCC1CN(c3ccc4c(n3)NC(=O)CO4)C(=O)O1)C2` (stereo not drawn) [Example 118, 6-[5-[3-[[5-(2-aminoethoxy)-4-chloro-2,3-dihydro-1H-inden-2-yl]amino]propyl]-2-oxo-1,3-oxazolidin-3-yl]-4H-pyrido[3,2-b][1,4]oxazin-3-one; formic acid]: the IC50 was less than 97.7 nM.

In the case of `COc1ncc(F)c2c1CC(CNCCC1CN(c3ccc4c(n3)NC(=O)CO4)C(=O)O1)C2` (stereo not drawn) [Example 70, 6-[5-[2-[(4-fluoro-1-methoxy-6,7-dihydro-5H-cyclopenta[c]pyridin-6-yl)methylamino]ethyl]-2-oxo-oxazolidin-3-yl]-4H-pyrido[3,2-b][1,4]oxazin-3-one], the IC50 was no more than 97.7 nM.

As for `Cc1nonc1COc1cc(C#N)c2c(c1)CC(CNCCC1CN(c3cnc4c(n3)NC(=O)CO4)C(=O)O1)C2` (stereo not drawn) [Example 392, 6-[(4-methyl-1,2,5-oxadiazol-3-yl)methoxy]-2-[[2-[2-oxo-3-(3-oxo-4H-pyrazino[2,3-b][1,4]oxazin-6-yl)-1,3-oxazolidin-5-yl]ethylamino]methyl]-2,3-dihydro-1H-indene-4-carbonitrile], the IC50 was less than 97.7 nM.

Turning to `N#Cc1ncc(F)c2c1CC(CNCCC1CN(c3ccc4c(n3)NC(=O)CO4)C(=O)O1)C2` (stereo not drawn) [Example 37, 4-fluoro-6-[[2-[2-oxo-3-(3-oxo-4H-pyrido[3,2-b][1,4]oxazin-6-yl)-1,3-oxazolidin-5-yl]ethylamino]methyl]-6,7-dihydro-5H-cyclopenta[c]pyridine-1-carbonitrile; formic acid], the IC50 was less than 97.7 nM.

For the compound `NC1c2cccc(Cl)c2CC1CNCCC1CN(c2cnc3c(c2)NC(=O)CO3)C(=O)O1` (racemic) [Example 135, 7-[2-oxo-5-[2-[[rac-1,2-trans-1-amino-4-chloro-2,3-dihydro-1H-inden-2-yl]methylamino]ethyl]-1,3-oxazolidin-3-yl]-1H-pyrido[2,3-b][1,4]oxazin-2-one; formic acid], the IC50 is 5800 nM.

For the compound `N#Cc1cccc2c1CC(CNCCC1CN(c3ccc4c(n3)NC(=O)CS4)C(=O)O1)C2N` (racemic) [Example 247, rac-1,2-trans-1-amino-2-[[2-[2-oxo-3-(3-oxo-4H-pyrido[3,2-b][1,4]thiazin-6-yl)-1,3-oxazolidin-5-yl]ethylamino]methyl]-2,3-dihydro-1H-indene-4-carbonitrile], the IC50 is less than 97.7 nM.

`N#Cc1cc(OCc2cn[nH]c2)cc2c1CC(CNCCC1CN(c3cnc4c(n3)NC(=O)CO4)C(=O)O1)C2` (stereo not drawn) [Example 405, 2-[[2-[2-oxo-3-(3-oxo-4H-pyrazino[2,3-b][1,4]oxazin-6-yl)-1,3-oxazolidin-5-yl]ethylamino]methyl]-6-(1H-pyrazol-4-ylmethoxy)-2,3-dihydro-1H-indene-4-carbonitrile; formic acid]: the IC50 is less than 97.7 nM.

As to `N#Cc1cccc2c1CC(NCC(O)CC1CN(c3cnc4c(n3)NC(=O)CO4)C(=O)O1)C2` (single isomer, unassigned; isomer a) [Example 81, 2-[[2-hydroxy-3-[2-oxo-3-(3-oxo-4H-pyrazino[2,3-b][1,4]oxazin-6-yl)-1,3-oxazolidin-5-yl]propyl]amino]-2,3-dihydro-1H-indene-4-carbonitrile, Isomer A; formic acid], the IC50 is 164 nM.

As to `N#Cc1cc(OCC2(N)CC2)cc2c1CC(CNCCC1CN(c3cnc4c(n3)NC(=O)CO4)C(=O)O1)C2` (stereo not drawn) [Example 186, 6-((1-aminocyclopropyl)methoxy)-2-(((2-(2-oxo-3-(3-oxo-3,4-dihydro-2H-pyrazino[2,3-b][1,4]oxazin-6-yl)oxazolidin-5-yl)ethyl)amino)methyl)-2,3-dihydro-1H-indene-4-carbonitrile], the IC50 is less than 97.7 nM.

In the case of `COc1cc2c(c(Cl)n1)CC(CNCCC1CN(c3cnc4c(n3)NC(=O)CO4)C(=O)O1)C2` (stereo not drawn) [Example 50, 6-[5-[2-[(1-chloro-3-methoxy-6,7-dihydro-5H-cyclopenta[c]pyridin-6-yl)methylamino]ethyl]-2-oxo-1,3-oxazolidin-3-yl]-4H-pyrazino[2,3-b][1,4]oxazin-3-one], the IC50 was less than 97.7 nM.

As for `Cc1nccc2c1CC(CNCCc1cn(-c3cnc4c(n3)NC(=O)CO4)c(=O)o1)C2` (stereo not drawn) [Example 371, 6-[5-[2-[(1-methyl-6,7-dihydro-5H-cyclopenta[c]pyridin-6-yl)methylamino]ethyl]-2-oxo-1,3-oxazol-3-yl]-4H-pyrazino[2,3-b][1,4]oxazin-3-one], the IC50 was less than 97.7 nM.

Turning to `CNCCOc1nc(C)c2c(c1C)CC(CNCCC1CN(c3ccc4c(n3)NC(=O)CO4)C(=O)O1)C2` (stereo not drawn) [Example 173, 6-[5-[2-[[1,4-dimethyl-3-[2-(methylamino)ethoxy]-6,7-dihydro-5H-cyclopenta[c]pyridin-6-yl]methylamino]ethyl]-2-oxo-1,3-oxazolidin-3-yl]-4H-pyrido[3,2-b][1,4]oxazin-3-one], the half-inhibitory concentration (IC50) came out at 194 nM.

The assay is the same for the next values; noted with them: strain Escherichia coli ATCC 25922; 10-point broth dilution, optical density at 600 nm over 16 h; read-out: Escherichia coli growth inhibition IC50.
As for `Cc1ncc(F)c2c1CC(CN1CCC3(CN(c4ccc5c(n4)NC(=O)CO5)C(=O)O3)C(CN)C1)C2` (racemic) [Example 250, 6-[rac-5,6-trans-6-(Aminomethyl)-8-[(4-fluoro-1-methyl-6,7-dihydro-5H-cyclopenta[c]pyridin-6-yl)methyl]-2-oxo-1-oxa-3,8-diazaspiro[4.5]decan-3-yl]-4H-pyrido[3,2-b][1,4]oxazin-3-one], the half-maximal inhibitory concentration (IC50) worked out at 289 nM.
